Data published in US20180250224A1, “Ophthalmic Drug Compositions” (Oxular Limited, priority 2014, published 2018).

Experiment: Drug elution in PBS over 0-7 days (HPLC of supernatant)
Assay type: physicochemical
Conditions: 1.2 ml PBS, 37 degrees centigrade, 250 rpm
Experimental: The microspheres of Example 7 and the elongated solid composition of Example 8 were tested for drug release. Samples of the Everolimus containing microspheres, averaging 4.0 mg, were placed in Eppendorf tubes with 1.2 ml of phosphate buffered saline (PBS) and suspended with agitation. Samples of the elongated solid composition containing Everolimus of 12 mm length, averaging 0.51 mg were placed in Eppendorf tubes with 1.2 ml of phosphate buffered saline (PBS) and suspended with agitation. For comparison, samples of the drug used to produce the microspheres, averaging 4.1 mg, were also placed in Eppendorf tubes with 1.2 ml of PBS and suspended with agitation. The tubes were incubated at 37 degrees centigrade with mixing at 250 rpm. At time intervals of 0, 1, 2, 4 and 7 days a tube containing sample was centrifuged and the supernatant removed for drug analysis. For each time point, 10 microliters of supernatant was placed into 75:25 acetonitrile and water solvent to solubilize the drug and the resultant drug content was analyzed by HPLC. The HPLC method used a C18 reverse phase column and UV detection and was calibrated to a standard curve of drug. […] In contrast, the Everolimus containing microspheres released drug at a slower rate, with 0.06% of the drug released at 7 days. Similar to the microspheres, the elongated solid composition containing Everolimus released drug at a slow rate, with 0.04% of the drug released at 7 days.
The microspheres of Example 11 and the elongated solid composition of Example 12 were tested for drug release. […] For each time point, 10 microliters of supernatant was placed into 75:25 acetonitrile and water solvent to solubilize the drug and the resultant drug content was analyzed by HPLC. […]
The elongated solid composition of Example 15 was tested for drug release. […] For each time point, 10 microliters of supernatant was placed into 50:50 acetonitrile and methanol solvent to solubilize the drug and the resultant drug content was analyzed by HPLC. […]

drug released at 7 days (7 days) [%] | drug released initially at 0 days (initial burst release) (0 days) [%] | drug released, average at subsequent time points (1, 2, 4 and 7 days) [%] | Structure (SMILES)
0.45 | – | – | CO[C@H]1C[C@@H]2CC[C@@H](C)[C@@](O)(O2)C(=O)C(=O)N2CCCC[C@H]2C(=O)O[C@H]([C@H](C)C[C@@H]2CC[C@@H](OCCO)[C@H](OC)C2)CC(=O)[C@H](C)/C=C(\C)[C@@H](O)[C@@H](OC)C(=O)[C@H](C)C[C@H](C)/C=C/C=C/C=C/1C [Everolimus]
– | 5.3 | 0.9 | CC1(C)O[C@@H]2C[C@H]3[C@@H]4C[C@H](F)C5=CC(=O)C=C[C@]5(C)[C@@]4(F)[C@@H](O)C[C@]3(C)[C@]2(C(=O)CO)O1 [fluocinolone, fluocinolone acetonide]
